Holding throughout (format): cell-based
Assay [1] deals with LNCaP cells. Description: Prostate cancer cell line growth inhibition assay, LNCaP. To be noted: Homo sapiens, 72 h, read-out: AR positive LnCaP GI50. How it is done:
(§1) Prostate Cancer Cell Line Growth Inhibition Assays: The PC-3, DU-145, LNCaP, C4-2, and 22Rv1 PC cell line growth inhibition assays have been described previously (Fancher et al., Assay Drug Dev Technol. 2016, 14:453-477; Fancher et al., Assay Drug Dev Technol. 2019, 17:364-386). On day 1, each PC cell line was harvested, counted, and seeded into two 384-well assay plates, a time zero (T0) and a time 72 h (T72) plate. PC cell lines were all seeded at 1,000 cells per well in 45 μL of tissue culture media in uncoated white clear bottom 384-well assay plates (VWR, #82050-076) using a Matrix electronic multichannel pipette (Thermo Fisher Scientific, Waltham, MA) and cultured overnight at 37° C., 5% CO2, and 95% humidity. On day 2, 25 μL of the CellTiter-Glo® (CTG) (Promega Corporation, Madison, WI) detection reagent was dispensed into the wells of the TO assay plate using a Matrix electronic multichannel pipette, and the RLUs were captured on the SpectraMax® M5e (Molecular Devices LLC, Sunnyvale, CA) microtiter plate reader. Also on day 2, 5 μL of compounds were transferred into the test wells of the T72 384-well assay plates which were returned to the incubator for 72 h. Control wells received DMSO alone. On day 5, 25 μL of the CTG detection reagent was dispensed into the wells of the T72 assay plate using a Matrix electronic multichannel pipette, and the RLU's were captured on the SpectraMax® M5e microtiter plate reader platform.
(§2) For the 96-well AR-LBD H^3-DHT radioligand binding assay, eight minimum and maximum plate control wells were utilized to normalize the data. […] To normalize the 72 h compound exposure PC growth inhibition data, the signals from the compound treated wells were processed and expressed as % of the T72 DMSO plate controls. IC50 and GI50 values for each of the bioassays were calculated using GraphPad Prism 9 software to plot and fit data to curves using the Sigmoidal dose response variable slope equation Y=Bottom+[Top-Bottom]/[1+10^(Log EC50−X)*HillSlope].

In assay [2] the test system is PSA expression in C4-2 cells. Description: Western blot of PSA expression in C4-2 cells. To be noted: C4-2 cells, hits 20 μM (enzalutamide 25 μM) 3 h, ±10 nM DHT 24 h. The procedure: Cell lysate protein concentrations were determined in a bicinchoninic acid (BCA) assay. Equal amounts of cell protein were mixed with SDS-PAGE sample buffer and placed in a heat block at 100° C. for 5 min. The protein constituents of C4-2 cells were separated by SDS-PAGE on 10% separating gels, transferred to nitrocellulose membranes and western blots were probed overnight at 4° C. with a 1:1000 dilution of a rabbit anti-hPSA (Cell Signaling, Danvers, MA) primary antibody in Tris-buffered saline (TBS) Tween 20 (TBST) containing 5% non-fat milk. Membranes were washed 3× in TBST for 10 min, then incubated for 1 h at room temperature with a 1:10,000 dilution of the goat anti-rabbit IgG horse radish peroxidase (HRP) conjugated secondary antibody (Invitrogen, Carlsbad, CA) in TBST containing 5% non-fat milk. Western blots were then washed 3× in TBST and developed with Pierce enhanced chemiluminescence (ECL) western blotting substrate (Thermo Fisher Scientific, Waltham, MA). Images of western blot ECL bands were acquired on an iBright™ 1500 imaging system (Thermo Fisher Scientific, Waltham, MA) and quantified by iBright™ image analysis software.

Assay [3] deals with 22Rv1 cells. Description: Prostate cancer cell line growth inhibition assay, 22Rv1. To be noted: Homo sapiens, 22Rv1, 72 h; read-out: AR positive 22Rv1 GI50. The procedure: as §1, §2

SMILES strings stand for the structures. “Also recorded” adds a separate entry of the source.

Broadly, the GI50 is the concentration that inhibits growth by half.

With `Cc1ccccc1-c1cc(O)c2c(c1)CN(c1nc(C(N)=O)cs1)CCO2` [Compound S1-1], the 50% growth inhibitory concentration (GI50) in assay [1] was 24.4 µM; in assay [3], 42.5 µM. Moreover, the “Endogenous and DHT-enhanced PSA expression” value in assay [2] is reported as “substantially reduced; also recorded: inhibition”.

In the case of `Cc1nsc(NC(=O)N2CCC(Sc3ccccc3C)CC2)n1` [Compound S2-6], the 50% growth inhibitory concentration (GI50) in assay [1] was 15.6 µM; in assay [3], 17.9 µM. Moreover, the “Endogenous and DHT-enhanced PSA expression” value in assay [2] is given as “substantially reduced; also recorded: inhibition”.

With `Cc1c(-c2ccccc2F)[nH]c2ccc(CNC(=O)CCc3cn[nH]c3)cc12` [Compound S3-11], the 50% growth inhibitory concentration (GI50) in assay [1] is 6.35 µM; in assay [3], 13.2 µM. Besides, in assay [2], the “Endogenous and DHT-enhanced PSA expression” value is recorded as “substantially reduced; also recorded: inhibition”.

Source of the values: patent US20260083751A1, “ALLOSTERIC MODULATORS OF ANDROGEN RECEPTOR COACTIVATOR RECRUITMENT FOR CRPC THERAPY” (University of Pittsburgh – Of the Commonwealth System of …, priority 2022, published 2026).
